Test results reported in paper PMC9106491, “In Vitro Antioxidant, Anti-Inflammatory, and Digestive Enzymes Inhibition Activities of Hydro-Ethanolic Leaf and Bark Extracts of Psychotria densinervia (K. Krause) Verdc” (Advances in Pharmacological and Pharmaceutical Sciences, 2022).
“And” between values parts separate entries of the source, which are not always exact repeats. Equal values may be shown once.

Experiments:
ABTS radical scavenging = details: 15 mins, 734 nm
Procedure: ABTS scavenging activity was evaluated by the discoloration of the cationic radical ABTS^∗^+, as per the technique described by Arnao et al. with some modifications. Briefly, the ABTS reagent was obtained by mixing an ethanolic solution of ABTS (7.4 mM) and an aqueous solution of potassium persulfate (2.6 mM). After mixing, the solution was incubated in the dark for 24 hours. The ABTS solution obtained was diluted until an absorbance of 1.5 was obtained at 734 nm. Two hundred microliters of each extract or catechin at different concentrations (15.62, 31.25, 62.5, and 250 μg/ml) was added to 1800 μl of the ABTS solution prepared above. The mixture was incubated in the dark for 15 mins, and the absorbance was read with a spectrophotometer at 734 nm against the blank. Catechin was used as the standard. […] The IC50 was calculated as in DPPH.

[1] = DPPH free radical scavenging; details: 30 mins, 517 nm
Procedure: The DPPH scavenging assay was conducted by the method of Sanchez-Moreno et al. with some modifications. DPPH (0.1 mM) stock solution was diluted in methanol, and the absorbance was adjusted to 1.5 at 517 nm wavelength. […] extracts (500 μl) at different concentrations (15.62, 31.25, 62.5, and 250 μg/ml) were mixed with 2000 μl of DPPH solution and read with the aid of a spectrophotometer at 517 nm after 30 mins of incubation in the dark.

[2] = target: T1, pancreatic cholesterol esterase (Sus scrofa, UniProt A0A286ZKB1); details: read-out: Cholesterol esterase IC50; p-NPB substrate
T1 sequence (A0A286ZKB1 95-682): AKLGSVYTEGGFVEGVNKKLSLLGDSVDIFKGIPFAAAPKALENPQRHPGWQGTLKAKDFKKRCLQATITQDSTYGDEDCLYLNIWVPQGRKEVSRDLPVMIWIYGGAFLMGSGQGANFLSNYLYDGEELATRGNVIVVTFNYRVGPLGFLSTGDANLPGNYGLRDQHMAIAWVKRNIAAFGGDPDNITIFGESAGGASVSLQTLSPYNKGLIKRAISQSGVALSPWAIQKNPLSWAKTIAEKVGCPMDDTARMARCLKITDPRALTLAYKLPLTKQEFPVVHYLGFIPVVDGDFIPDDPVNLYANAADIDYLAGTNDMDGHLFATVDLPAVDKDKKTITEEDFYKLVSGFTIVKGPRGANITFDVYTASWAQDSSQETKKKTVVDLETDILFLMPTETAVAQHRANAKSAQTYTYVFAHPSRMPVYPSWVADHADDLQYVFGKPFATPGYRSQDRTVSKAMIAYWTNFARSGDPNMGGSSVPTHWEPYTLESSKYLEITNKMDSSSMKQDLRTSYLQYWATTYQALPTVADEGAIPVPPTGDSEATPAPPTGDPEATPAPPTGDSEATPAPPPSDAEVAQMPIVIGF
Procedure: Briefly, 50 μl of the extracts at different concentrations (3.12, 6.25, 12.5, 25, 50, 100, and 200 μg/ml) was added to 50 μl of 5.16 mM taurocholic acid and 50 μl of an aqueous solution of cholesterol esterase and incubated for 10 mins at 25°C. Then, 50 μl of p-nitrophenyl butyrate substrate (0.2 mM) was added to the mixture and incubated for 5 mins at 25°C. Cholesterol esterase inhibitory activity was determined by measuring the hydrolysis of p-NPB to p-nitrophenol at 405 nm using an ELISA microplate reader (BK-EL10 C).
Anticholesterol esterase activity is given as IC50 values (the concentrations that inhibited 50% of the hydrolysis of pNPB to p-nitrophenol).

[3] = target: T2, porcine pancreatic lipase (Sus scrofa, UniProt P00591); assay: Pancreatic lipase inhibition; type: biochemical; details: read-out: inhibition percentage of lipase
T2 construct: purchased Sigma-Alrich Chemical Co
T2 sequence (P00591 1-450): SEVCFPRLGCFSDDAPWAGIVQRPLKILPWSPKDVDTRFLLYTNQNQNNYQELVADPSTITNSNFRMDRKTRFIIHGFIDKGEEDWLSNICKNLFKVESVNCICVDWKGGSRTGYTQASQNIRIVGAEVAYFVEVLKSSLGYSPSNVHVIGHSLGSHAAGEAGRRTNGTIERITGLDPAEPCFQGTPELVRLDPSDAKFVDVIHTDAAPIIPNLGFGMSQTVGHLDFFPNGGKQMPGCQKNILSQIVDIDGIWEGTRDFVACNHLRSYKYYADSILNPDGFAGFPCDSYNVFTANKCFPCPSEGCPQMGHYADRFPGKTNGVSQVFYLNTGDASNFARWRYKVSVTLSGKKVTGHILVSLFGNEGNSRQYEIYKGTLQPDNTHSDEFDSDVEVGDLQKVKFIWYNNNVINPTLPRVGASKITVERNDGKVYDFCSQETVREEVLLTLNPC
Procedure: The method described by Kim et al. was used in this assay. […] The mixture was then incubated at 37°C for 37 mins. The reaction was started by the addition of 10 μl of p-nitrophenyl butyrate substrate (10 mM p-NPB) in dimethylformamide.

SMILES: O.Oc1cc(O)c2c(c1)O[C@H](c1ccc(O)c(O)c1)[C@@H](O)C2 [catechin]
- ABTS IC50 (ABTS radical scavenging): 33.48 ± 2.02 µg/mL

SMILES: O=C1O[C@H]([C@@H](O)CO)C(O)=C1O [ascorbic acid]
- DPPH IC50 [1]: 71.78 ± 6.37 µg/mL and 71.98 ± 1.21 µg/mL

SMILES: CCCCCCCCCCC[C@@H](C[C@@H]1OC(=O)[C@H]1CCCCCC)OC(=O)[C@H](CC(C)C)NC=O [orlistat]
- IC50 [2]: 110 µM
- inhibition at 200 µg/mL [3]: 97.83 ± 0.34%
